Experimental data as given in patent EP4786474A1, “CRYSTALLINE FORM OF QUINAZOLINE DERIVATIVE AND PREPARATION METHOD THEREFOR” (Jiangsu Hengrui Pharmaceuticals Co., Ltd., priority 2023, dated 2025).

Assays:
Format in all cases: physicochemical
[1] = DVS (dynamic vapor sorption) hygroscopicity testing
Excerpt: According to the description of hygroscopicity characteristics and the definition of hygroscopic weight gain in "General Rule 9103, Guidelines for Hygroscopicity Trials for Pharmaceuticals" in the Chinese Pharmacopoeia, Volume IV, 2015 Edition: • deliquescent: sufficient water is absorbed to form a liquid; • extremely hygroscopic: the hygroscopic weight gain is not less than 15%; • hygroscopic: the hygroscopic weight gain is less than 15% but not less than 2%; • slightly hygroscopic: the hygroscopic weight gain is less than 2% but not less than 0.2%; • nonhygroscopic or practically nonhygroscopic: the hygroscopic weight gain is less than 0.2%.
DVS refers to dynamic vapor sorption: The analysis was performed using SMS DVS Advantage; at 25 °C, the humidity was changed as follows: 50%-95%-0%-95%-50%, in steps of 10% (5% for the last step) (specific humidity ranges are shown in corresponding patterns, and those listed here were used in most cases); the criterion was dm/dt being not greater than 0.002%.

[2] = Influencing factor stability study
Method: Samples of the crystal forms D, E, and H were spread in open containers and left to stand under light exposure (4500 Lux), high temperature (40 °C and 60 °C), and high humidity (RH 75% and RH 92.5%) conditions for 1 month to investigate their stability.

[3] = Long-term/accelerated stability
Method: Samples of the crystal forms D, E, and H were left to stand under 25 °C/60% RH and 40 °C/75% RH conditions to investigate their stability: Table 30.

C=CC(=O)N1[C@@H]2CC[C@H]1C[C@@H](Oc1ccc3ncnc(Nc4ccc(Oc5ccn6ncnc6c5)c(C)c4F)c3c1)C2 [Crystal form H, 1-(endo-3-((4-((4-([1,2,4]Triazolo[1,5-a]pyridin-7-yloxy)-2-fluoro-3-methylphenyl)amino)quinazolin-6-yl)oxy)-8-azabicyclo[3.2.1]octan-8-yl)prop-2-en-1-one]
hygroscopic weight gain ([1]; accelerated experimental conditions, 70% RH): about 0.12%
hygroscopic weight gain ([1]; extreme conditions, 90% RH): about 0.22%
hygroscopic weight gain ([1]; normal storage conditions, 25 °C and 60% RH): about 0.09%
Color and appearance ([2]; 40 °C, 1 month): White powder
Crystal form ([2]; 40 °C, 1 month): No change
Purity (%) ([2]; 40 °C, 1 month): 99.4%
Color and appearance ([2]; 40 °C, 7 days): White powder
Crystal form ([2]; 40 °C, 7 days): No change
Color and appearance ([2]; 40 °C, 14 days): White powder
Crystal form ([2]; 40 °C, 14 days): No change
Color and appearance ([2]; 60 °C, 1 month): White powder
Crystal form ([2]; 60 °C, 1 month): No change
Purity (%) ([2]; 60 °C, 1 month): 99.4%
Color and appearance ([2]; 60 °C, 7 days): White powder
Crystal form ([2]; 60 °C, 7 days): No change
Color and appearance ([2]; 60 °C, 14 days): White powder
Crystal form ([2]; 60 °C, 14 days): No change
Color and appearance ([2]; 75% RH, 1 month): White powder
Crystal form ([2]; 75% RH, 1 month): No change
Color and appearance ([2]; 75% RH, 7 days): White powder
Crystal form ([2]; 75% RH, 7 days): No change
Color and appearance ([2]; 75% RH, 14 days): White powder
Crystal form ([2]; 75% RH, 14 days): No change
Color and appearance ([2]; 92.5% RH, 1 month): White powder
Crystal form ([2]; 92.5% RH, 1 month): No change
Color and appearance ([2]; 92.5% RH, 7 days): White powder
Crystal form ([2]; 92.5% RH, 7 days): No change
Color and appearance ([2]; 92.5% RH, 14 days): White powder
Crystal form ([2]; 92.5% RH, 14 days): No change
Color and appearance ([2]; 4500 Lux, 1 month): White powder
Crystal form ([2]; 4500 Lux, 1 month): No change
Color and appearance ([2]; 4500 Lux, 7 days): White powder
Crystal form ([2]; 4500 Lux, 7 days): No change
Color and appearance ([2]; 4500 Lux, 14 days): White powder
Crystal form ([2]; 4500 Lux, 14 days): No change
Color and appearance ([2]; Initial, 0): White powder
Crystal form ([2]; Initial, 0): Crystal form H
Purity (%) ([2]; Initial, 0): 99.8%
physical and chemical stability ([2]; light exposure (4500 Lux), high temperature (40 °C and 60 °C), high humidity (RH 75% and RH 92.5%), 30 days): Conclusion: Standing under light exposure (4500 Lux), high temperature (40 °C and 60 °C), and high humidity (RH 75% and RH 92.5%) conditions for 30 days, the crystal form H exhibited good physical and chemical stability.
Color and appearance ([3]; 25 °C/60% RH, 1 month): White powder
Crystal form ([3]; 25 °C/60% RH, 1 month): No change
Color and appearance ([3]; 25 °C/60% RH, 2 months): White powder
Crystal form ([3]; 25 °C/60% RH, 2 months): No change
Color and appearance ([3]; 25 °C/60% RH, 3 months): White powder
Crystal form ([3]; 25 °C/60% RH, 3 months): No change
Color and appearance ([3]; 25 °C/60% RH, 6 months): White powder
Crystal form ([3]; 25 °C/60% RH, 6 months): No change
Color and appearance ([3]; 25 °C/60% RH, 14 days): White powder
Crystal form ([3]; 25 °C/60% RH, 14 days): No change
Color and appearance ([3]; 40 °C/75% RH, 1 month): White powder
Crystal form ([3]; 40 °C/75% RH, 1 month): No change
Color and appearance ([3]; 40 °C/75% RH, 2 months): White powder
Crystal form ([3]; 40 °C/75% RH, 2 months): No change
Color and appearance ([3]; 40 °C/75% RH, 3 months): White powder
Crystal form ([3]; 40 °C/75% RH, 3 months): No change
Color and appearance ([3]; 40 °C/75% RH, 6 months): White powder
Crystal form ([3]; 40 °C/75% RH, 6 months): No change
Color and appearance ([3]; 40 °C/75% RH, 14 days): White powder
Crystal form ([3]; 40 °C/75% RH, 14 days): No change
Color and appearance ([3]; Initial, 0): White powder
Crystal form ([3]; Initial, 0): Crystal form H
Purity (%) ([3]; Initial, 0): 99.8%
physical and chemical stability ([3]; long-term/accelerated conditions): Conclusion: Under long-term/accelerated conditions, the crystal form H exhibited good physical and chemical stability.
